The values that follow come from patent US5654411A, “Process for preparing 4-deoxyerythromycin derivatives” (Abbott Laboratories, priority 1995, dated 1997).

This test concerns smooth muscle strips isolated from rabbit small intestine. Put plainly: Induction of in vitro rabbit duodenal smooth muscle contraction. Conditions: for EC50: Oryctolagus cuniculus, rabbit duodenum longitudinal muscle, 37° C., pH 7.5, read-out: pED50 (negative logarithm of the concentration producing half of the maximal contraction) (converted); for Relative Potency: relative to erythromycin A = 1.0. Here is the method: The compounds of the present invention were tested in vitro for their ability to induce contraction of smooth muscle strips isolated from rabbit small intestine using the following procedure:
Rabbits were sacrificed and 15 cm of duodenum was rapidly removed and placed in ice-cold modified Ringers solution (120 mM sodium chloride, 25 mM sodium bicarbonate, 4.7 mM potassium chloride, 1.25 mM calcium chloride, 1.20 mM magnesium sulfate and 5.6 mM glucose). The longitudinal muscle layer was separated from the circular muscle by blunt dissection and cut into strips of 10×20 mm. Double-folded strips were vertically suspended between two hooks in 10 mL tissue baths with a mechanical preload of 1 g. The upper hook was connected to an […] force transducer, and its displacement was recorded on a Grass polygraph. The tissue baths contained modified Ringers solution at 37° C. and were continuously gassed with 95% oxygen/5% carbon dioxide in order to maintain the pH at 7.5.
After a stabilization period of at least 60 minutes, a contractility dose-response series was performed by adding increasing final concentrations of methacholine (10^-7 M, 10^-6 M and 10^-5 M) in volumes of 100 μL. The bath solutions were replaced at least three times between doses.
After the methacholine dose-response series was completed, a test compound dose response curve was initiated by the same procedure used for the methacholine dose-response series, with at least five concentrations of test compound within the range of 10^-10 M to 10^-4 M. The tissues were washed repeatedly between doses, and the studies were completed by recording the contractile response to 10^-5 M methacholine to ascertain integrity of the muscle preparation. Contractile responses were expressed as percent of maximal contraction. The concentration of test compound which produces half of the maximal contraction (ED50 value) and the negative logarithm of the ED50 value (PED50) were estimated from the dose-response curves.

Take `CC[C@H]1OC(=O)[C@H](C)[C@@H](O[C@H]2C[C@@](C)(OC)[C@@H](O)[C@H](C)O2)[C@H](C)[C@@H](O[C@@H]2O[C@H](C)C[C@H](N(C)C)[C@H]2O)[C@](C)(O)C[C@@H](C)C(=O)[C@H](C)[C@@H](O)[C@]1(C)O` [erythromycin A, reference compound]: the EC50 was 1410 nM.

`CC[C@H]1OC(=O)[C@H](C)[C@@H](O[C@H]2C[C@@](C)(OC)C[C@H](C)O2)[C@H](C)[C@@H](O[C@@H]2O[C@H](C)C[C@H](NC)[C@H]2O)[C@@]2(C)C[C@H](C)C(O2)[C@H](C)[C@@H](O)[C@]1(C)O` [Example 10, 9-deoxo-3'-N-desmethyl-4",6-dideoxy-8-epi-6,9-epoxyerythromycin A]: the EC50 was 17.8 nM and the “Relative Potency” value turned out to be 79.

As for `CC[C@H]1OC(=O)[C@H](C)[C@@H](O[C@H]2C[C@@](C)(OC)C[C@H](C)O2)[C@H](C)[C@@H](O[C@@H]2O[C@H](C)C[C@H](N(C)C)[C@H]2O)[C@@]2(C)CC(C)=C(O2)[C@H](C)[C@@H](O)[C@H]1C` [Example 2, 8,9-anhydro-4"-deoxyerythromycin B-6,9-hemiketal], the EC50 is 0.0055 nM and the “Relative Potency” value is 257,039.

With `C#CC[N+](C)(C)[C@H]1C[C@@H](C)O[C@@H](O[C@@H]2[C@@H](C)[C@H](O[C@H]3C[C@@](C)(OC)C[C@H](C)O3)[C@@H](C)C(=O)O[C@H](CC)[C@@](C)(O)[C@H](O)[C@@H](C)C3O[C@]2(C)C[C@H]3C)[C@@H]1O` [Example 16, 9-deoxo-4",6-dideoxy-6,9-epoxy-3'-N-propargylerythromycin A bromide], the EC50 was 40.7 nM and the “Relative Potency” value came out at 35.

Take `CC[C@H]1OC(=O)[C@H](C)[C@@H](O[C@H]2C[C@@](C)(OC)C[C@H](C)O2)[C@H](C)[C@@H](O[C@@H]2O[C@H](C)C[C@H](N(C)CC)[C@H]2O)[C@@]2(C)CC(C)=C(O2)[C@H](C)[C@@H](O)[C@]1(C)O` [Example 4, 8,9-anhydro-4"-deoxy-3'-N-desmethyl-3'-N-ethylerythromycin A-6,9-hemiketal]: the EC50 was 0.00316 nM and the “Relative Potency” value is 199,526.

As for `C#CC[N+](C)(C)[C@H]1C[C@@H](C)O[C@@H](O[C@@H]2[C@@H](C)[C@H](O[C@H]3C[C@@](C)(OC)C[C@H](C)O3)[C@@H](C)C(=O)O[C@H](CC)[C@@](C)(O)[C@H](O)[C@@H](C)C3O[C@]2(C)C[C@@H]3C)[C@@H]1O` [Example 12, 9-deoxo-4",6-dideoxy-8-epi-6,9-epoxy-3'-N -propargylerythromycin A bromide], the EC50 was 23.4 nM and the “Relative Potency” value was found to be 60.

Consider `C#CC[N+](C)(C)[C@H]1C[C@@H](C)O[C@@H](O[C@@H]2[C@@H](C)[C@H](O[C@H]3C[C@@](C)(OC)C[C@H](C)O3)[C@@H](C)C(=O)O[C@H](CC)[C@@](C)(O)[C@H](O)[C@@H](C)C3=C(C)C[C@@]2(C)O3)[C@@H]1O` [Example 5, 8,9-anhydro-4"-deoxy-3'-N-propargylerythromycin A-6,9-hemiketal bromide], for which the EC50 was 22.9 nM and the “Relative Potency” value amounted to 62.

For the compound `CC[C@H]1OC(=O)[C@H](C)[C@@H](O[C@H]2C[C@@](C)(OC)C[C@H](C)O2)[C@H](C)[C@@H](O[C@@H]2O[C@H](C)C[C@H](N(C)C)[C@H]2O)[C@@]2(C)C[C@@H](C)C(O2)[C@H](C)[C@@H](O)[C@]1(C)O` [Example 13, 9-deoxo-4",6-dideoxy-6,9-epoxyerythromycin A], the EC50 is 0.166 nM and the “Relative Potency” value is 8,511.

Take `CC[C@H]1OC(=O)[C@H](C)[C@@H](O[C@H]2C[C@@](C)(OC)C[C@H](C)O2)[C@H](C)[C@@H](O[C@@H]2O[C@H](C)C[C@H](NC)[C@H]2O)[C@@]2(C)C[C@@H](C)C(O2)[C@H](C)[C@@H](O)[C@]1(C)O` [Example 14, 9-Deoxo-4',6-Dideoxy-3'-N-Desmethyl-6,9-Epoxyerythromycin A]: the EC50 is 70.8 nM and the “Relative Potency” value worked out at 20.

Consider `C#CC[N+](C)(C)[C@H]1C[C@@H](C)O[C@@H](O[C@@H]2[C@@H](C)[C@H](O[C@H]3C[C@@](C)(OC)C[C@H](C)O3)[C@@H](C)C(=O)O[C@H](CC)[C@H](C)[C@H](O)[C@@H](C)C3=C(C)C[C@@]2(C)O3)[C@@H]1O` [Example 8, 8,9-anhydro-4"-deoxy-3'-N-propargylerythromycin B-6,9-hemiketal bromide], for which the EC50 is 50.1 nM and the “Relative Potency” value is recorded as 28.

Regarding `CC[C@H]1OC(=O)[C@H](C)[C@@H](O[C@H]2C[C@@](C)(OC)C[C@H](C)O2)[C@H](C)[C@@H](O[C@@H]2O[C@H](C)C[C@H](NC)[C@H]2O)[C@@]2(C)CC(C)=C(O2)[C@H](C)[C@@H](O)[C@]1(C)O` [Example 3, 8,9-anhydro-4"-deoxy-3'-N-desmethyl erythromycin A-6,9-hemiketal], the EC50 was 0.182 nM and the “Relative Potency” value is on record as 7,762.

For the compound `CC[C@H]1OC(=O)[C@H](C)[C@@H](O[C@H]2C[C@@](C)(OC)C[C@H](C)O2)[C@H](C)[C@@H](O[C@@H]2O[C@H](C)C[C@H](N(C)C)[C@H]2O)[C@@]2(C)CC(C)=C(O2)[C@H](C)[C@@H](O)[C@]1(C)O` [Example 1, 8,9-Anhydro-4"-deoxyerythromycin A-6,9-hemiketal], the EC50 was 3.89 nM and the “Relative Potency” value is on record as 363.

Take `CC[C@H]1OC(=O)[C@H](C)[C@@H](O[C@H]2C[C@@](C)(OC)C[C@H](C)O2)[C@H](C)[C@@H](O[C@@H]2O[C@H](C)C[C@H](NC)[C@H]2O)[C@@]2(C)CC(C)=C(O2)[C@H](C)[C@@H](O)[C@H]1C` [Example 6, 8,9-anhydro-4"-deoxy-3'-N-desmethylerythromycin B-6,9-hemiketal]: the “Relative Potency” value is more than 8000. The “Endpoint (pED50) could not be obtained, potency in words” value (footnote a of Table 2) was “extremely high potency”.
